According to patent US20110065796A1 (SHIRE LLC, priority 2009, published 2011):

What was measured:
[1] = Prodrug stability in simulated gastric fluid; details: 37° C., pH 1.1, HPLC
Experimental: (§1) The remaining concentrations of the prodrugs were then assayed by H PLC.

[2] = Prodrug stability in simulated intestinal fluid; details: 37° C., pH 6.8, HPLC
Experimental: as §1

Compound	% prodrug remaining following incubation for 1 h in simulated gastric fluid pH 1.1 [1] [%]	% prodrug remaining following incubation for 2 h in simulated intestinal fluid pH 6.8 [2] [%]
N=C(NC(=O)CC[C@H](NC(=O)c1ccc(N)cc1)C(=O)O)NC(=O)Cc1c(Cl)cccc1Cl [Compound 70, Guanfacine ((S)-γ-Glutamate-PABA) Amide]	64	93
O=C(O)CC1N=C(NC(=O)Cc2c(Cl)cccc2Cl)NC1=O (centres unmarked) [Compound 4, Guanfacine Fumaryl Cyclic Adduct]	97	84
C[C@@H]1N=C(NC(=O)Cc2c(Cl)cccc2Cl)NC1=O [Compound 39, Guanfacine-(S)-AlanineCyclic Adduct]	89	104
CC(C)[C@@H](N)C(=O)NCCOC(=O)NC(=N)NC(=O)Cc1c(Cl)cccc1Cl [Compound 27, Guanfacine (Ethanolamine-(R)-Valine) Carbamate]	78	111
N=C(NC(=O)Cc1c(Cl)cccc1Cl)NC(=O)OCC[C@H](NC(=O)CCN)C(=O)O [Compound 67, Guanfacine ((S)- Homoserine-β-Alanine) Carbamate]	99	97
CC(C)[C@@H](NC(=O)COC(=O)NC(=N)NC(=O)Cc1c(Cl)cccc1Cl)C(=O)O [Compound 30, Guanfacine (Glycolyl -(R)-Valine) Carbamate]	77	160
N=C(NC(=O)CC[C@H](NC(=O)c1ccc(C(=O)O)cc1)C(=O)O)NC(=O)Cc1c(Cl)cccc1Cl [Compound 60, Guanfacine ((S)-γ-Glutamate-Terephthalic acid) Amide]	81	97
NC(=O)CC[C@@H]1N=C(NC(=O)Cc2c(Cl)cccc2Cl)NC1=O [Compound 38, Guanfacine-(S)-Glutamine Cyclic Adduct]	70	87
C[C@@H](OC(=O)NC(=N)NC(=O)Cc1c(Cl)cccc1Cl)[C@H](NC(=O)[C@@H]1CCC(=O)N1)C(=O)O [Compound 19, Guanfacine ((S)-Threonine-(S)-Pyroglutamic acid) Carbamate]	92	102
N=C(NC(=O)CCCNC(=O)CC[C@H](N)C(=O)O)NC(=O)Cc1c(Cl)cccc1Cl [Compound 57, Guanfacine (GABA-(S)-γ-Glutamate) Amide]	81	106
CC(C)[C@H](N)C(=O)N[C@H](C(=O)O)[C@@H](C)OC(=O)NC(=N)NC(=O)Cc1c(Cl)cccc1Cl [Compound 20, Guanfacine ((S)-Threonine-(S)-Valine) Carbamate]	79	100
N=C(NC(=O)CCCNC(=O)[C@@H]1CCC(=O)N1)NC(=O)Cc1c(Cl)cccc1Cl [Compound 23, Guanfacine (GABA-(S)-Pyroglutamic acid) Amide]	98	78
CCC(C)[C@@H](N)C(=O)NCCCC(=O)NC(=N)NC(=O)Cc1c(Cl)cccc1Cl (stereo partly drawn) [Compound 50, Guanfacine (GABA-(R)-Isoleucine) Amide]	85	81
CNCC(=O)NCCOC(=O)NC(=N)NC(=O)Cc1c(Cl)cccc1Cl [Compound 71, Guanfacine (Ethanolamine-Sarcosine) Carbamate]	91	89
O=C1CCN=C(NC(=O)Cc2c(Cl)cccc2Cl)N1 [Compound 34, Guanfacine-β-Alanine Cyclic Adduct]	51	91
N=C(NC(=O)Cc1c(Cl)cccc1Cl)NC(=O)OCC[C@H](N)C(=O)O [Compound 65, Guafacine (S)-Homoserine Carbamate]	90	99
CC(C)[C@H](NC(=O)CC(C)(C)CC(=O)NC(=N)NC(=O)Cc1c(Cl)cccc1Cl)C(=O)O [Compound 33, Guanfacine (3,3-dimethylglutaryl-(S)-Valine) Amide]	79	99
NCCCC[C@@H]1N=C(NC(=O)Cc2c(Cl)cccc2Cl)NC1=O [Compound 36, Guanfacine-(S)-Lysine Cyclic Adduct]	83	101
CC(C)(CO)[C@@H](O)C(=O)NCCCOC(=O)NC(=N)NC(=O)Cc1c(Cl)cccc1Cl [Compound 69, Guanfacine Panthenol Carbamate]	85	96
CC(C)[C@@H](N)C(=O)NCCCC(=O)NC(=N)NC(=O)Cc1c(Cl)cccc1Cl [Compound 22, Guanfacine (GABA-(R)-Valine) Amide]	106	85
CC(=O)N[C@@H](COC(=O)NC(=N)NC(=O)Cc1c(Cl)cccc1Cl)C(=O)O [Compound 15, Guanfacine Acetyl-(S)-Serine Carbamate]	83	112
N=C(NC(=O)Cc1c(Cl)cccc1Cl)NC(=O)OCCNC(=O)CN [Compound 49, Guanfacine (Ethanolamine-Glycine) Carbamate]	87	101
N=C(NC(=O)Cc1c(Cl)cccc1Cl)NC(=O)O[C@@H]1CN[C@H](C(=O)O)C1 [Compound 14, Guanfacine (S,S)-4-Hydroxyproline Carbamate]	70	108
CNCC(=O)N[C@@H](CCOC(=O)NC(=N)NC(=O)Cc1c(Cl)cccc1Cl)C(=O)O [Compound 66, Guanfacine ((S)-Homoserine-Sarcosine) Carbamate]	86	101
CC(C)[C@@H](NC(=O)c1ccc(N)cc1)C(=O)NC(=N)NC(=O)Cc1c(Cl)cccc1Cl [Compound 55, Guanfacine ((R)-Valine-PABA) Amide]	65	91
